Experimental data as given in US9604931B2, “Nuclear receptor binding agents” (GTx, Inc., priority 2007, dated 2017).
pEC50: −log10 of the molar value.

How the values were obtained:
PPAR-α = PPAR-α transactivation (PPRE-LUC) in HEK-293 cells co-transfected with ER-β; format: cell-based
Method: FIG. 12 depicts the effect of ER-β ligand on PPAR-γ function through ligand binding domain (LBD). (A). HEK-293 cells were transfected with 0.25 μg PPRE-LUC, 5 ng CMV-renilla LUC and the indicated receptors (PPAR-γ and ER-β for the left panel and PPAR-α and ER-β for the right panel). The cells were treated 24 hrs after transfection with the indicated ligands and harvested 48 hrs after transfection and firefly luciferase activity was measured and normalized to renilla luciferase. (B). H475 in ER-β LBD is important for its function. H475 in ER-β LBD was mutated to alanine (A) using a site directed mutagenesis kit. Transactivation assay was performed as described in panel A in HEK-293 cells with a titration of ER-β ligands in wild type (WT) or ER-β H475A. (C). […] The cells were treated 24 hrs after transfection with the indicated ligands and harvested 48 hrs after transfection and firefly luciferase activity was measured and normalized to renilla luciferase. […] The cells were treated 24 hrs after transfection with the indicated ligands and harvested 48 hrs after transfection and firefly luciferase activity was measured and normalized to renilla luciferase. […] The cells were treated 24 hrs after transfection with the indicated ligands and harvested 48 hrs after transfection and firefly luciferase activity was measured and normalized to renilla luciferase. […]

C-26 colon cancer cells = test: 3H thymidine incorporation, C-26 cells; format: cell-based; conditions: 3 days treatment
Method: The effects of treatment of an ER-β selective NRBA of this invention on cancer cell proliferation was examined using LNCaP prostate cancer cells and C-26 colon cancer cells. LNCaP or C-26 cells were plated in growth medium in 24 well and 6 well plates, respectively. LNCaP cells were treated for 6 days and C-26 cells were treated for 3 days at the indicated concentration. ^3H thymidine incorporation was measured at the end of treatment as an indicator of cell proliferation.

ARPE-19 cells = test: Fluorescent detection of intracellular ROS; format: cell-based, Human; conditions: 150 μM tBH
Text: Cells were allowed to adhere overnight. […] Removed and washed cells once with HBSS. […] Each drug concentration was done in triplicates.

[1] = system: LNCaP cells and human prostate stromal cells xenograft; test: LNCaP-stromal cell xenograft tumor growth; format: in vivo, nude mice; conditions: 30 mg/kg/day for 21 days
Method: Prostate tumor xenografts were established with LNCaP cells and human prostate stromal cells in nude mice to establish the in vivo anti-proliferative effects of these ER-β NRBAs. A 4:1 ratio (based on cell number) of LNCaP:stroma cells was injected subcutaneously in nude mice and allowed to grow until they attained 100 mm^3 in volume, as measured by calipers. […] Tumor volumes were measured twice a week and percent tumor volume calculated, after 10, 14 and 21 days.

[2] = system: ovariectomy-induced (postmenopausal) obesity model; test: Ovariectomy-induced obesity model; format: in vivo, female C57BL6 mice; conditions: OVX mice
Method: For the ovariectomy-induced obesity model, 6 week old female C57BL6 mice were sham operated or ovariectomized and the study was carried out for 9 weeks as indicated above.
Since it was shown that β-SERMs affected body composition in an animal model of high fat diet-induced obesity, they might also be effective in an animal model of postmenopausal obesity.

rat aorta rings = test: Rat aortic ring relaxation; conditions: 10^-6 PE constriction; for pEC50: Rattus norvegicus
Text: Experimental protocol. Equipment used in these studies included a 4-tissue bath system with reservoirs and circulators (RadnotiGlass Technology, Monrovia, Calif.), DSI/Ponemah tissue force analyzer 7700 (Valley View, Ohio), and iWorx/CB Sciencesforce transducers FT-302. The 250 g rats were anesthetized with isoflurane to produce deep anesthesia. The chest of the rat was opened, and about 3 cm length of aorta was removed and placed in a Petri dish containing room temperature Krebs salt solution (KSS, in mM: 120 NaCl, 5 KCl, 1.2 MgSO4.7H20, 2.5 CaCl2.2H2O, 1 KH2PO4, 25 NaHCO3, and 11 glucose). Fat and connective tissue were removed from the aorta taking care not to stretch the vessel. The aorta was then divided into 3-mm-wide rings. Triangular wire holders were inserted through the lumen of the vessel and connected to the force transducer and tissue holder rod in the vessel bath.
Analog-to-digital conversions of force waveforms were accomplished with a DSI/Ponemah tissue force analyzer 7700. The converted data were automatically analyzed with Ponemah Physiology-Smooth Muscle software. All data are summarized as means±standard error. Differences between means were assessed by a conventional ANOVA. This was followed by Student's test. P<0.05 was considered to be statistically significant.
The tension on the rings was adjusted to 1.0 g passive force using the tension adjustment dial for each transducer and allowed to equilibrate for 60 min in the bath with a 95% O2-5% CO2 gas mixture. The rings were washed with fresh buffer every 20 min. Passive force was readjusted to 1.0 g as needed during this period. When rings were stable at 1.0 g of passive force, the baseline was calculated.
Phenylephrine (PE) at a final concentration of […] was added to the bath to contract the ring, and force was allowed to stabilize for 10 min. Then acetylcholine (ACH) at a final concentration of 10^−5 M was added to the precontracted rings to test for endothelial integrity […]. After the initial test for vessel viability and endothelial integrity, the rings were washed three times for 10 min with buffer, allowing it to equilibrate to active force stabilized at 1 g.
Cumulative concentration-response curves to NRBAs were created by increasing the NRBAs concentration in the tissue bath by successive addition of appropriate dilutions of stock solutions to achieve final bath concentrations of 300 nM to 0.15 mM NRBAs.
Table 10 summarizes EC50 values and maximal % decrease of the 10^−6 PE constriction of the aortic ring for individual NRBAs tested

Row | SMILES | WY14643 induced PPAR-α transactivation (PPAR-α) | Growth of C-26 colon cancer cells (C-26 colon cancer cells) | Prevention of ROS formation / oxidative stress (ARPE-19 cells) | Xenograft tumor growth [1] | Body weight gain [2] | Fat mass (MRI) [2] | Feed consumption [2] | Lean mass (MRI) [2] | Uterine weight [2] | WAT weight [2] | Mean of Maximal % Decrease of the PE constriction of the aortic ring (rat aorta rings) [%] | pEC50 (rat aorta rings)
1 | O=c1c2c(O)cc(O)cc2c(Br)cn1-c1ccc(O)cc1 [12u, 4-bromo-6,8-dihydroxy-2-(4-hydroxyphenyl)isoquinolin-1(2H)-one] | did not affect | significantly inhibited | did not seem to have any effect | inhibited the growth of tumor significantly | did not inhibit body weight gain | completely prevented the increase in fat mass | increased the feed consumption | significantly increased lean mass | without affecting uterine weight | completely inhibited the WAT | 50.97 | 4.52
2 | N#Cc1cn(-c2ccc(O)cc2)c(=O)c2c(O)cc(O)cc12 [14m, 6,8-dihydroxy-2-(4-hydroxyphenyl)-1-oxo-1,2-dihydroisoquinoline-4-carbonitrile] | did not affect |  |  |  |  |  |  |  |  |  | 94.49 | 5.12
